{"source": "patent US10722501B2", "about": "(BAYER AKTIENGESELLSCHAFT, priority 2016, dated 2020)"}
{"molecular_target": "T1, recombinant full-length human prolyl endopeptidase (PREP) (Homo sapiens, UniProt P48147)", "T1 construct": "To recombinant full-length human prolyl endopeptidase (PREP, R&D-Systems, 4308-SE); purchased R&D-Systems 4308-SE", "T1 sequence (P48147 1-710)": "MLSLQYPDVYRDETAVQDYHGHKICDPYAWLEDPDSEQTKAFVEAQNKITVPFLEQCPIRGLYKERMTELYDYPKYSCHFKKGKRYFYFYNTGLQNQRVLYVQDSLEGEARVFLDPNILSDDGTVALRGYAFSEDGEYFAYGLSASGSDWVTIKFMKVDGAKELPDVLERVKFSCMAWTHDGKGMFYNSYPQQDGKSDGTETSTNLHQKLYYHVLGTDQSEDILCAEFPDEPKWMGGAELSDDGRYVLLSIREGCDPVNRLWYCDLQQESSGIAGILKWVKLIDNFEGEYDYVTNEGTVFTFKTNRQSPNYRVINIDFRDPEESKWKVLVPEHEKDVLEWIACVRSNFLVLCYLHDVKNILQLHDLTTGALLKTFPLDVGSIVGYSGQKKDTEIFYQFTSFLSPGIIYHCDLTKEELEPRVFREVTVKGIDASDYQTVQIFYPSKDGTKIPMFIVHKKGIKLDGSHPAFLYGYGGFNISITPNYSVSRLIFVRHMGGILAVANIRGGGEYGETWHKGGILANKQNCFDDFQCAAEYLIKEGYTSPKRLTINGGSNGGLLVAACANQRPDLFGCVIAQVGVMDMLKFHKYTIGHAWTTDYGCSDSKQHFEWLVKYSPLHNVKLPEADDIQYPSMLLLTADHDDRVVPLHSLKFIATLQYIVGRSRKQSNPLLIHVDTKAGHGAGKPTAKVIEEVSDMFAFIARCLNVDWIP", "test": "Biochemical human prolyl endopeptidase (PREP) assay with fluorescently labelled substrate", "settings": "substrate Z-Gly-Pro-AMC 50 μM, 32° C., 60 min; some as mean values from multiple independent determinations", "outline": "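Initial rates of fluorescence increase from 50 μM Z-Gly-Pro-AMC cleavage (ex 360/em 465 nm, 60 min, 32° C) give percent PREP activity versus no-compound control, and IC50 is interpolated. Enzyme used at 0.4 nM (final, example) in Tris pH 7.5 with EDTA, GSH, BSA and Brij-35; compounds span 1 nM to 30 μM.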", "units": {"IC50": "nM"}}
{"molecule": "O=C(C1C(C(F)(F)F)CCc2nn(Cc3ccc(Cl)cn3)c(=O)n21)N1C[C@@H](F)[C@@H](F)C1", "note": "(mixture of isomers) [Example 300, (5RS,6RS)-2-[(5-Chloropyridin-2-yl)methyl]-5-{[(3R,4S)-3,4-difluoropyrrolidin-1-yl]carbonyl}-6-(trifluoromethyl)-5,6,7,8-tetrahydro[1,2,4]triazolo[4,3-a]pyridin-3(2H)-one]", "IC50": 19}
{"molecule": "O=C(C1C(C(F)(F)F)CCc2nn(Cc3ccnc(C(F)(F)F)c3F)c(=O)n21)N1CC(F)C1", "note": "(racemic) [Example 302, (5RS,6RS)-5-[(3-Fluoroazetidin-1-yl)carbonyl]-2-{[3-fluoro-2-(trifluoromethyl)pyridin-4-yl]methyl}-6-(trifluoromethyl)-5,6,7,8-tetrahydro[1,2,4]triazolo[4,3-a]pyridin-3(2H)-one]", "IC50": 49.5}
{"molecule": "O=C(C1C(C(F)(F)F)CCc2nn(Cc3ccc(C(F)(F)F)nc3)c(=O)n21)N1CC(F)C1", "note": "(racemic) [Example 304, (5RS,6RS)-5-[(3-Fluoroazetidin-1-yl)carbonyl]-6-(trifluoromethyl)-2-{[6-(trifluoromethyl)pyridin-3-yl]methyl}-5,6,7,8-tetrahydro[1,2,4]triazolo[4,3-a]pyridin-3(2H)-one]", "IC50": 35}
{"molecule": "O=C(C1C(C(F)(F)F)CCc2nn(Cc3ncc(Cl)cc3Cl)c(=O)n21)N1CC(F)C1", "note": "(racemic) [Example 306, (5RS,6RS)-2-[(3,5-Dichloropyridin-2-yl)methyl]-5-[(3-fluoroazetidin-1-yl)carbonyl]-6-(trifluoromethyl)-5,6,7,8-tetrahydro[1,2,4]triazolo[4,3-a]pyridin-3(2H)-one]", "IC50": 215}
{"molecule": "O=C(C1C(C(F)(F)F)CCc2nn(Cc3ncc(Cl)cc3F)c(=O)n21)N1CC(F)C1", "note": "(racemic) [Example 308, (5RS,6RS)-2-[(5-Chloro-3-fluoropyridin-2-yl)methyl]-5-[(3-fluoroazetidin-1-yl)carbonyl]-6-(trifluoromethyl)-5,6,7,8-tetrahydro[1,2,4]triazolo[4,3-a]pyridin-3(2H)-one]", "IC50": 125}
{"molecule": "O=C(C1C(C(F)(F)F)CCc2nn(Cc3ccc(Cl)cn3)c(=O)n21)N1CC(F)C1", "note": "(racemic) [Example 310, (5RS,6RS)-2-[(5-Chloropyridin-2-yl)methyl]-5-[(3-fluoroazetidin-1-yl)carbonyl]-6-(trifluoromethyl)-5,6,7,8-tetrahydro[1,2,4]triazolo[4,3-a]pyridin-3(2H)-one]", "IC50": 15}
{"molecule": "O=C(C1CC(C(F)(F)F)Cc2nn(Cc3ccc(C(F)(F)F)nc3)c(=O)n21)N1CCC(F)(F)C1", "note": "(racemic) [Example 312, (5RS,7RS)-5-[(3,3-Difluoropyrrolidin-1-yl)carbonyl]-7-(trifluoromethyl)-2-{[6-(trifluoromethyl)pyridin-3-yl]methyl}-5,6,7,8-tetrahydro[1,2,4]triazolo[4,3-a]pyridin-3(2H)-one]", "IC50": 8.9}
{"molecule": "O=C(C1CC(C(F)(F)F)Cc2nn(Cc3ccc(Cl)cn3)c(=O)n21)N1CC[C@H](F)C1", "note": "(mixture of isomers) [Example 314, (5RS,7RS)-2-[(5-Chloropyridin-2-yl)methyl]-5-{[(3S)-3-fluoropyrrolidin-1-yl]carbonyl}-7-(trifluoromethyl)-5,6,7,8-tetrahydro[1,2,4]triazolo[4,3-a]pyridin-3(2H)-one]", "IC50": 1.4}
{"molecule": "O=C(C1CC(C(F)(F)F)Cc2nn(Cc3cncc(Cl)c3)c(=O)n21)N1CC[C@H](F)C1", "note": "(mixture of isomers) [Example 316, (5RS,7RS)-2-[(5-Chloropyridin-3-yl)methyl]-5-{[(3S)-3-fluoropyrrolidin-1-yl]carbonyl}-7-(trifluoromethyl)-5,6,7,8-tetrahydro[1,2,4]triazolo[4,3-a]pyridin-3(2H)-one]", "IC50": 2.6}
{"molecule": "CC1CCC(C(=O)N2C[C@@H](F)[C@@H](F)C2)n2c1nn(Cc1ccc(F)c(Cl)c1)c2=O", "note": "(mixture of isomers) [Example 319, (5RS,8RS)-2-(3-Chloro-4-fluorobenzyl)-5-{[(3R,4S)-3,4-difluoropyrrolidin-1-yl]carbonyl}-8-methyl-5,6,7,8-tetrahydro[1,2,4]triazolo[4,3-a]pyridin-3(2H)-one]", "IC50": 0.63}
